In patent US9205121B2, “Echinacea formulation” (Integria Healthcare (Australia) PTY LTD, priority 2004, dated 2015):

Tested on: liver P450
Experiment: inhibition of 2,4-diene alkylamide metabolism by co-incubation with a 2-ene alkylamide in human liver microsomes
Type: in vitro ADME
Conditions: co-incubation of 3 with 6 at equimolar concentrations, 90 minutes
Procedure: Compound 3 was present at 20 μM in all experiments while 6 was present at (●) 0, (∘) 0.22, (▪) 2.2, ( ) 5.5, (▴) 9.0 and (Δ) 20 uM. Each point represents the mean for one microsomal preparation examined in duplicate. The deviation was less than 15 for each point.
Incubations (0.5 mL) with tissue fractions contained either the microsomal fraction at 0.1-0.2 mM P450 or the cytosolic fraction at 5 mg/mL protein in 100 mM potassium phosphate (pH 7.4) supplemented with is substrates (synthetic alkylamides 6, 11, 3 and 12 or the alkylamide fraction from the ethanolic liquid as required—see Figure legends for concentrations used) added from ethanolic stocks. Final ethanol concentrations were either 0.70% or 0.96% and were consistent in each assay. Reactions were initiated by the addition of an NADPH-generating system consisting of (final concentrations) 250 mM NADP+, 10 mM glucose-6-phosphate and 0.5 μ/mL glucose-6-phosphate dehydrogenase. Negative controls and cytosolic incubations lacked an NADPH-generating system. Reaction mixtures were incubated at 37° C. with gentle agitation for the duration of each experiment. Reactions were terminated by addition of an equal volume of 100% methanol to a sample aliquot. Diluted samples were then centrifuged at 16000×g for 2 minutes and supernatants stored at −20° C. until analysis by LCMS.

% of the original concentration of 3 detected: 83±4%
SMILES: C/C=C\C=C/CC/C=C/C=C/C(=O)NCC(C)C [alkylamide 3, (2E,4E,8Z,10Z)—N-isobutyldodeca-2,4,8,10-tetraenamide]
